Measured values taken from PMC7057948, “A genome-wide approach for identification and characterisation of metabolite-inducible systems” (Nature Communications, 2020).
Counter-ions that a name gives are not always drawn. Blank lines part the entries; values can stand above or below the compound they belong to.

Columns and labels:
BenM [1] = biological target: T1, BenM (Cupriavidus necator, UniProt Q0KAA5); assay: cell-based; design: RFP reporter induction by transcription factor biosensor, single time-point fluorescence in LB, relative to primary effector; conditions: Escherichia coli TOP10; relative to primary effector, E. coli, LB; read-out: % activation
T1 construct: native full-length gene, divergent to operon starting at H16_RS09790; reporter plasmid pEH148 (plasmid assigned by list order)
T1 sequence (Q0KAA5 1-305): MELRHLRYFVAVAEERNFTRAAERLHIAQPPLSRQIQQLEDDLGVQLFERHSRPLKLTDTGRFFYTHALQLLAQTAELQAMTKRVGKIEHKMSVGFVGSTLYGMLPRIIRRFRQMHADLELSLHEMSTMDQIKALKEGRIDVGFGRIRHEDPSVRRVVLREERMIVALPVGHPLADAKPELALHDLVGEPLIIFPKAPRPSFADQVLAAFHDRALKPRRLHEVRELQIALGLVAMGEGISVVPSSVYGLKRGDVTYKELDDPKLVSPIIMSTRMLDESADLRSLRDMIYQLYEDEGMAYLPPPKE
Text: (§1) TRs often recognise molecules that are structurally similar to their primary effectors. For example, isopropyl β-D-1-thiogalactopyranoside is a commonly used structural analogue of allolactose, employed to control the expression of genes regulated by LacI. Here, the TR’s specificity was investigated to identify previously uncharacterised ligand–TR interactions and consequently extend the biosensor application to the detection of structurally similar or metabolically related compounds. To do so, the library of 21 native and heterologous inducible systems was screened against 46 compounds using an integrated robotic platform, as described in the previous section. […] Similarly to the former orthogonality screen (Fig. 6a), it should be noted that activation of reporter gene expression by the extracellularly added compounds likely indicates a structural resemblance to the primary ligand, a metabolic relationship or a combination thereof. To shed light on their cause of system activation, cultures of E. coli carrying the functional formate-, [compound left out]-, benzoate-, 3,4-dihydroxybenzoate-, acetoin- and β-alanine-inducible systems, active in this host organism, were evaluated for the same cross-reactivity (Supplementary Table 5).  Fig. 3 C. necator native systems mediate controllable gene expression in E. coli and P. putida. Single time-point fluorescence measurements of a, b E. coli and c, d P. putida carrying the C. necator-inducible gene expression systems composed of TR and promoter a, c or ‘promoter only’ version b, d. The plasmids harbouring the individual system– or promoter–reporter gene constructs are indicated. RFP fluorescence output was determined in the absence of inducer (light purple and light blue) and 6 h after extracellular supplementation with the corresponding primary effector to a final concentration of 5 mM (dark purple and dark blue). Data are mean ± SD, n = 3, *p < 0.05, **p < 0.01, ***p ≤ 0.001, ****p ≤ 0.0001, unpaired two-tailed t-test. Source data are provided as a Source Data file. All strains used in this study are listed in Supplementary Table 7. E. coli TOP10 (Life Technologies) was used for cloning and plasmid propagation. For single time-point fluorescence measurements and flow cytometric analyses, bacterial strains were propagated in Luria-Bertani (LB) medium. To determine the dose–responses and to evaluate inducer TR cross-reactivity, C. necator was cultivated in MM containing 1 g/L NH4Cl, 9 g/L Na2HPO4·12H2O, 1.5 g/L KH2PO4, 0.2 g/L MgSO4·7H2O, 0.02 g/L CaCl2·2H2O and 0.0012 g/L (NH4)5[Fe(C6H4O7)2] with 1 mL/L trace element solution SL7 (1.3 mL/L 25% (w/v) HCl, 0.07 g/L ZnCl2, 0.1 g/L MnCl2·4H2O, 0.062 g/L H3BO3, 0.190 g/L CoCl2·6H2O, 0.017 g/L CuCl2·2H2O, 0.024 g/L NiCl2·6H2O and 0.036 g/L Na2MoO4·2H2O) supplemented with 0.4% (w/v) sodium gluconate. If required, antibiotics were added to the growth medium at the following concentrations: 12.5 µg/mL tetracycline or 25 µg/mL chloramphenicol for E. coli, 50 µg/mL chloramphenicol for C. necator and 25 µg/mL tetracycline for P. putida. For solid media preparation, 15 g/L agar was added.

BenM [2] = assay: cells; design: species or system Cupriavidus necator H16; RFP reporter induction by transcription factor biosensor, fluorescence normalised to cell density, relative to primary effector; conditions: 6 h; relative to primary effector, C. necator, MM; read-out: % activation
Experimental: (§2) To screen the 441 combinations of inducer and biosensor for cross-reactivity, we employed an automated platform (see Methods section). Strains of C. necator harbouring the inducible systems were grown in MM and transferred to a 96-well microtiter plate format. After the inducers had been extracellularly added, cells were cultured for 6 h before RFP fluorescence and cell density were measured. […] The remaining six inducible systems were activated by one or more metabolites other than their cognate inducers. This cross-reactivity may be the result of either structural resemblance, a metabolic relationship or a combination thereof. For example, L-phenylalanine is converted into L-tyrosine by the phenylalanine 4-monooxygenase PhhA (H16_RS18365). Therefore, activation of the L-tyrosine-inducible system by L-phenylalanine is more likely to be due to biological conversion of the added compound into the primary effector rather than direct interaction of L-phenylalanine with HpdA. However, since the difference between the two molecules lies in a singly hydroxyl-group, an induction by structural resemblance cannot be entirely ruled out. The same applies to phenylglyoxylate that activated the benzoate-inducible system. Phenylglyoxylate is converted by C. necator into benzoate via a two-step reaction with benzaldehyde as intermediate compound. During the first reaction, carbon dioxide is generated that may also explain induction of the formate-inducible system by the structurally dissimilar phenylglyoxylate. Since carbon dioxide can subsequently be converted into formate, it is rational to postulate that the FdsR/PH16_RS03165-inducible system is activated in this case by its primary inducer. In addition to phenylglyoxylate, the benzoate-inducible system was activated by extracellular supplementation with cyclohexanecarboxylate and cumate. Cyclohexanecarboxylate shares both a structural resemblance to benzoate and downstream  Fig. 6 Orthogonality of inducible systems. a Cross-reactivity of a set of 21 inducible systems and their corresponding primary inducers. The heat map illustrates induction of reporter gene expression in the presence of the metabolite (in %) relative to the induction mediated by the corresponding primary effector. Measurements were taken 6 h after supplementation with inducer at a final concentration of 5 mM. Data are mean, n = 4. Source data are provided as a Source Data file. b Fluorescence output of individual cells of C. necator carrying pEH263 measured by flow cytometry. The vector pEH263 contains the 3,4-dihydroxybenzoate- and [compound left out]-inducible systems controlling expression of rfp and egfp, respectively. Fluorescence was determined in the absence of inducer (orange), in the presence of 3,4-dihydroxybenzoate (blue), [compound left out] (green), and both 3,4-dihydroxybenzoate and [compound left out] (purple). Effector concentrations correspond to their respective Km’s and fluorescence was measured 2 h after inducer addition.

HpdR [3] = assay: cells; design: species or system Cupriavidus necator H16; RFP reporter induction by transcription factor biosensor, fluorescence normalised to cell density, relative to primary effector; conditions: 6 h; relative to primary effector, C. necator, MM; read-out: % activation
Experimental: as §2

OapR = assay: cells; design: species or system Cupriavidus necator H16; RFP reporter induction by transcription factor biosensor, fluorescence normalised to cell density, relative to primary effector; conditions: 6 h; relative to primary effector, C. necator, MM; read-out: % activation
Experimental: as §2

XdhR = test system: T2, XdhR; assay: RFP reporter dose-response in C. necator H16, Hill fit; assay type: cell-based, Cupriavidus necator; conditions: inducer concentration for half-maximal activation; extracellular inducer, minimal medium, 30 °C, 80 min; whole cells with chromosomal regulator copy; read-out: Km^b
T2 construct: native full-length gene, divergent to operon starting at H16_RS05055; reporter plasmid pEH154 (plasmid assigned by list order)

HpdA [4] = test system: T3, HpdA; assay: as above; assay type: cell-based, Cupriavidus necator; conditions: inducer concentration for half-maximal activation; extracellular inducer, minimal medium, 30 °C, 80 min; whole cells with chromosomal regulator copy; read-out: Km^b
T3 construct: native full-length regulator gene, divergent to operon starting at H16_RS24175; reporter plasmid pEH158 (plasmid assigned by list order)
Text: RFP reporter dose-response in C. necator H16, Hill fit on HpdA

PhhR = biological target: T4, PhhR (Cupriavidus necator, UniProt Q0K5I4); assay: as above; assay type: cell-based; conditions: read-out: Km^b
T4 construct: native full-length gene, divergent to phhA (H16_RS18365); reporter plasmid pEH137 (plasmid assigned by list order)
T4 sequence (Q0K5I4 1-234): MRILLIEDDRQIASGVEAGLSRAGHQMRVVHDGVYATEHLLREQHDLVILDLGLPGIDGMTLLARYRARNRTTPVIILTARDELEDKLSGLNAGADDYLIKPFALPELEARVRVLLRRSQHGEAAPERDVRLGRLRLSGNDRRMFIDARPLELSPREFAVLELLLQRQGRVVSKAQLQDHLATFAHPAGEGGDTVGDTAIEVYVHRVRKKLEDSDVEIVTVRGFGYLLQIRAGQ
Text: RFP reporter dose-response in C. necator H16, Hill fit on PhhR

HpdA [5] = assay: cells; design: species or system Cupriavidus necator H16; RFP reporter induction by transcription factor biosensor, fluorescence normalised to cell density, relative to primary effector; conditions: 6 h; relative to primary effector, C. necator, MM; read-out: % activation
Experimental: as §2

HpdR [6] = test system: T5, HpdR; assay: RFP reporter dose-response in C. necator H16, Hill fit; assay type: cell-based, Cupriavidus necator; conditions: inducer concentration for half-maximal activation; extracellular inducer, minimal medium, 30 °C, 80 min; whole cells with chromosomal regulator copy; read-out: Km^b
T5 construct: native full-length gene, divergent to operon starting at H16_RS18295; reporter plasmid pEH010 (plasmid assigned by exclusion)

AcoR [7] = biological target: T6, AcoR (Cupriavidus necator, UniProt P28614); assay: cell-based; design: RFP reporter induction by transcription factor biosensor, single time-point fluorescence in LB, relative to primary effector; conditions: Escherichia coli TOP10; relative to primary effector, E. coli, LB; read-out: % activation
T6 construct: native full-length gene, divergent to operon starting at H16_RS19445; reporter plasmid pEH052 (plasmid assigned by list order)
T6 sequence (P28614 1-668): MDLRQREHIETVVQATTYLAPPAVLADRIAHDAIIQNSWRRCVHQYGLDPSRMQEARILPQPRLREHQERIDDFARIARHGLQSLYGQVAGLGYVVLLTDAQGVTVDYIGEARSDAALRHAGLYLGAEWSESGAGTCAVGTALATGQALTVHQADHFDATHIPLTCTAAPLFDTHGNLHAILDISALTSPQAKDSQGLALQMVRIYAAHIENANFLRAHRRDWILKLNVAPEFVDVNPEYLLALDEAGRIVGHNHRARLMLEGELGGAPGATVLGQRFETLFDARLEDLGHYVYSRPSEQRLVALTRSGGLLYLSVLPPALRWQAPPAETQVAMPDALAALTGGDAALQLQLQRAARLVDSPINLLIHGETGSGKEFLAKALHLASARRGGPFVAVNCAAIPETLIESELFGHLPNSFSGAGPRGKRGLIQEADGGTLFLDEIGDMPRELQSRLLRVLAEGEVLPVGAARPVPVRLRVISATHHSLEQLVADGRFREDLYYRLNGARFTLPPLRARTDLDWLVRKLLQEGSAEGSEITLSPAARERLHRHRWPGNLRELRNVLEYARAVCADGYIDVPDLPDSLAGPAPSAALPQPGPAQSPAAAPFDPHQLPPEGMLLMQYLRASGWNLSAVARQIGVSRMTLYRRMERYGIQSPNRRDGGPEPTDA
Text: as §1

AcoR [8] = assay: cells; design: species or system Cupriavidus necator H16; RFP reporter induction by transcription factor biosensor, fluorescence normalised to cell density, relative to primary effector; conditions: 6 h; relative to primary effector, C. necator, MM; read-out: % activation
Experimental: as §2

FdsR = FdsR (Cupriavidus necator, UniProt Q0KDY4); assay: cell-based
FdsR, sequence (Q0KDY4 1-364): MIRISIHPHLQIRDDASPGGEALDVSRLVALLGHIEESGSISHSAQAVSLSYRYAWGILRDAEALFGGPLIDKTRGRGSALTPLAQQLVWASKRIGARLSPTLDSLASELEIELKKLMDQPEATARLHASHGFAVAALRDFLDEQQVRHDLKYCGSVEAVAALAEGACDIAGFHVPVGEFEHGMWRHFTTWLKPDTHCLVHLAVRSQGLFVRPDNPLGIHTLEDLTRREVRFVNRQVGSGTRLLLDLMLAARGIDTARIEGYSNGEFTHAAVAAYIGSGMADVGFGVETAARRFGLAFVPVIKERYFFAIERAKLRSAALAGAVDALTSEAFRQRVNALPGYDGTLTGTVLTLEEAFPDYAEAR
Text: RFP reporter dose-response in C. necator H16, Hill fit on FdsR

KynR = biological target: T7, KynR (Cupriavidus necator, UniProt Q0K7Y0); assay: RFP reporter dose-response in C. necator H16, Hill fit; assay type: cell-based; conditions: read-out: Km^b
T7 construct: gene H16_A2813; native full-length gene, divergent to operon starting at H16_RS14030; reporter plasmid pEH136 (plasmid assigned by list order)
T7 sequence (Q0K7Y0 1-160): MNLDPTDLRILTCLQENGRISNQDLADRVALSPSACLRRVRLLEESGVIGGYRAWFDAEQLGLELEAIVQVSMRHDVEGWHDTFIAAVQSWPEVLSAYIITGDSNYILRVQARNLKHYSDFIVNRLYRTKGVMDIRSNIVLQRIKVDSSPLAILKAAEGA

PcaQ = biological target: T8, PcaQ (Cupriavidus necator, UniProt Q0JYV0); assay: as above; assay type: cell-based; conditions: read-out: Km^b
T8 construct: native full-length gene, divergent to operon starting at H16_RS30145; reporter plasmid pEH161 (plasmid assigned by list order)
T8 sequence (Q0JYV0 1-317): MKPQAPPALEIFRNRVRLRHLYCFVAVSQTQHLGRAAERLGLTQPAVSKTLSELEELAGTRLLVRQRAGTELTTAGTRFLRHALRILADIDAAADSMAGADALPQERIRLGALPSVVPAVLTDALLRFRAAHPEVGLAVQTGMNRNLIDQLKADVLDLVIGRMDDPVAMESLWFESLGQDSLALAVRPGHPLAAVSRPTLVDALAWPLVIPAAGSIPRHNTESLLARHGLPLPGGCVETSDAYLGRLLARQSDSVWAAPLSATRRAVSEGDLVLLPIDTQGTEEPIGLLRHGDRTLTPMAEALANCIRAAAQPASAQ
Text: RFP reporter dose-response in C. necator H16, Hill fit on PcaQ

activity at 5000 µM (BenM [1]): 4.3%
SMILES: O=C(O)C1CCCCC1 [compound 14, Cyclohexanecarboxylate]
activity at 5000 µM (BenM [2]): 110%

SMILES: C=CC(=O)O [Acrylate]
activity at 5000 µM (HpdR [3]): 113%
activity at 5000 µM (OapR): 68%

EC50 (XdhR): 13 ± 1.4 µM
SMILES: O=c1[nH]c(=O)c2[nH]cnc2[nH]1 [compound 3, Xanthine]

SMILES: N[C@@H](Cc1ccc(O)cc1)C(=O)O [compound 13, L-tyrosine]
EC50 (HpdA [4]): 9.9 ± 2.2 µM

EC50 (PhhR): 16.9 ± 2.2 µM
SMILES: N[C@@H](Cc1ccccc1)C(=O)O [compound 11, L-phenylalanine]
activity at 5000 µM (HpdA [5]): 77%

EC50 (HpdR [6]): 13.2 ± 1.9 µM
SMILES: O=C(O)CCO [compound 10, 3-Hydroxypropanoate]

activity at 5000 µM (BenM [1]): 2%
activity at 5000 µM (AcoR [7]): 0%
SMILES: CC(C)c1ccc(C(=O)O)cc1 [cumate]
activity at 5000 µM (BenM [2]): 100%
activity at 5000 µM (AcoR [8]): 18%

SMILES: O=CO [compound 2, Formate]
EC50 (FdsR): 130 ± 7 µM

EC50 (KynR): 2.64 ± 0.18 µM
SMILES: Nc1ccccc1C(=O)C[C@H](N)C(=O)O [compound 9, L-kynurenine]

EC50 (PcaQ): 8.63 ± 0.4 µM
SMILES: O=C(O)c1ccc(O)c(O)c1 [compound 16, 3,4-Dihydroxybenzoate]
